# Values of other authors as cited in US9910020B1, “Methods and articles for identifying objects using encapsulated perfluorocarbon tracers” (Copilot Ventures Fund III LLC, priority 2005, dated 2018).
# Legend:
# cytochrome P450 IV = settings: following PFD treatment, rats; induced by fatty acids and perfluoronated fatty acids
# [1] = test system: cytochrome P-450 IA1 and IA1; settings: following PFD treatment, rats; induced by 3-methylcholanthrene-type inducers
# [2] = test system: cytochrome P-450 IIA2 (a.k.a. cytochrome P450e); settings: following PFD treatment, rats; as with phenobarbital induction
# aldrin-epoxidase = settings: following PFD treatment, rats
# cytochrome P-450 = settings: PFD given to rats; hepatic metabolizing enzymes
# [3] = test system: benzphetamine-N-demethylase; settings: following PFD treatment, rats
# [4] = test system: cytochrome P-450 IIA1 (a.k.a. cytochrome P450b); settings: following PFD treatment, rats; as with phenobarbital induction
structure (smiles),measurement,setting,value
"FC1(F)C(F)(F)C(F)(F)C2(F)C(F)(F)C(F)(F)C(F)(F)C(F)(F)C2(F)C1(F)F (stereo not shown) [PFD, perfluorodecalin]",activity of cytochrome P450 IV,cytochrome P450 IV,unaffected
same,activities of cytochrome P-450 IA1 and IA1,[1],unaffected
same,"activity of cytochrome P-450 IIA2, increase",[2],approximately two-fold
same,activity of aldrin-epoxidase,aldrin-epoxidase,increased
same,induction of cytochrome P-450,cytochrome P-450,induce cytochrome P-450 in a manner similar to phenobarbital
same,activity of benzphetamine-N-demethylase,[3],increased
same,"activity of cytochrome P-450 IIA1, increase",[4],approximately two-fold
